Reference: patent publication US20130102538A1, “METHOD OF TREATING ALZHEIMER'S DISEASE USING PHARMACOLOGICAL CHAPERONES TO INCREASE PRESENILIN FUNCTION AND GAMMA-SECRETASE ACTIVITY” (AMICUS THERAPEUTICS, INC., priority 2010, published 2013)

What was measured:
[1] = Brain concentration of compound A by LCMS; assay type: in vivo; settings: C57BL6, mouse, oral, 30 mg/kg, mice, read-out: brain t1/2 (converted)
Procedure: C57BL6 mice were treated by oral gavage of 30 mg/kg compound A (0.5% methylcellulose carrier) once a day for 4 consecutive days. After the final dose, nine groups of animals (5 animals per group) were sacrificed at different time points ranging from 15 min. post final dose up to 48 hours post final dose (plus an untreated group). Blood was collected and mouse brain samples were minced and homogenized in water using a FastPrep homogenizer (Thermo Scientific). Plasma and brain homogenates were extracted with acetonitrile for measurement of compound A concentrations by LCMS. For biochemical analysis, brains were homogenized (250 mM sucrose, 50 mM Tris, pH 7.5, 1 mM EDTA plus protease inhibitors) and separated into a membrane fraction and soluble fraction by ultracentrifugation at 100,000 g for 1 hr. […] Total protein was measured by BCA (Pierce) and 30 ug of each sample was separated by SDS/PAGE and analyzed by Western blot. […] Chemiluminescence data was imaged using an Alpha Innotech FluorChem Q imager and band quantification was carried out using densitometry software AlphaViewQ (Alpha Innotech). […] Abeta40 was quantified from diethylamine extracts using BetaMark Abeta40 ELISA kit (Covance); Abeta42 was quantified from diethylamine extracts using the High Sensitivity Abeta42 ELISA kit (Wako).

γ-secretase [2] = assay: In vivo brain α-CTF, Aβ40 and Aβ42 levels in mice after compound A; parameters: species or system C57BL6 mice
Procedure: (§1) Mice were treated via gavage once daily for […] with 30 mg/Kg of compound A and then necropsied 0-48 hours after the final dose was administered.
(§2) C57BL6 mice were treated by oral gavage of 30 mg/kg compound A (0.5% methylcellulose carrier) once a day for 4 consecutive days. After the final dose, nine groups of animals (5 animals per group) were sacrificed at different time points ranging from 15 min. post final dose up to 48 hours post final dose (plus an untreated group). Blood was collected and mouse brain samples were minced and homogenized in water using a FastPrep homogenizer (Thermo Scientific). Plasma and brain homogenates were extracted with acetonitrile for measurement of compound A concentrations by LCMS. For biochemical analysis, brains were homogenized (250 mM sucrose, 50 mM Tris, pH 7.5, 1 mM EDTA plus protease inhibitors) and separated into a membrane fraction and soluble fraction by ultracentrifugation at 100,000 g for 1 hr. The membrane fraction was solubilized in RIPA buffer (1% TX100, 0.5% Taurodexoycholate, 0.1% SDS in TBS+PI) and clarified by centrifugation. Total protein was measured by BCA (Pierce) and 30 ug of each sample was separated by SDS/PAGE and analyzed by Western blot. The following antibodies were used: PS1 ( 1/1000 Abcam no. Ab10281); calnexin ( 1/1000 Abcam no. Ab10286) and APP-CTF ( 1/1000 Anaspec 54096). Western blots were developed using an alkaline phosphatase anti-rabbit secondary and an alkaline phosphatase chemiluminescent substrate. Chemiluminescence data was imaged using an Alpha Innotech FluorChem Q imager and band quantification was carried out using densitometry software AlphaViewQ (Alpha Innotech). […] Abeta40 was quantified from diethylamine extracts using BetaMark Abeta40 ELISA kit (Covance); Abeta42 was quantified from diethylamine extracts using the High Sensitivity Abeta42 ELISA kit (Wako).

γ-secretase [3] = molecular target: γ-secretase (Homo sapiens, UniProt P49768); assay: γ-secretase inhibitory IC50 of compound A; settings: γ-secretase inhibition, compared with brain levels
presenilin 1 = molecular target: T1, presenilin 1 (Mus musculus, UniProt P49769); assay: In vivo brain PS1 levels in mice after compound A, western blot; parameters: species or system C57BL6 mice; settings: 30 mg/kg oral once daily 4 days
T1 construct: brain levels of mature PS1 remain elevated for well after compound A and α-CTFs have returned to baseline levels; The mature form of presenlin is a heterodimer consisting of a ˜30 kDa NH2-terminal fragment (NTF) and a ˜20 kDa C-terminal fragment; from tissue; host or cells: brain membrane fraction of C57BL6 mice
Procedure: as §1, §2

half-life [1]: ~3.5 h
IC50 (γ-secretase [3]): ~60 nM
brain presenilin levels above untreated levels (presenilin 1; at 24 hours): 50%
increase of brain presenilin levels (presenilin 1; within 1 hour of washout): 50%
maximum increase of brain presenilin levels (presenilin 1; within 8 hours of washout): 2 fold
SMILES: C[C@H](OC(=O)NCC(F)(F)C(F)(F)F)C(=O)N[C@@H]1C(=O)N(C)c2ccccc2-c2ccccc21 [Compound A, (S)-1-(((S)-5-methyl-6-oxo-6,7-dihydro-5H-dibenzo[b,d]azepin-7-yl)amino)-1-oxopropan-2-yl (2,2,3,3,3-pentafluoropropyl)carbamate]
reduction of brain Aβ42 levels relative to untreated controls (γ-secretase [2]; 30 mg/kg oral once daily 4 days, 48 hrs after the final dose): 40%
Aβ42/Aβ40 ratio in brain (γ-secretase [2]; 30 mg/kg oral once daily 4 days, washout): reduced
time after final dose at which CTF levels begin to drop (γ-secretase [2]; 30 mg/kg oral, brain α-CTFs): 2 h
